Measurements from the supplement of paper PMC10307832.

Legend:
Assay in all cases: relative viability (nuclei count vs DMSO), 5 days (fraction); higher = more cells survive
[1] = compound: CCN1C(=O)C2=CC(=C(N=C2N(C1=O)C3CC3)N)C(=O)N
How it was run: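 After an overnight hold at 37 °C, lung cancer cell lines in 1536-well plates were pinned with five library-drug doses (not always all listed), each √10 from the next, on vehicle-anchored plates. The cells stayed 5 days without fresh medium, then a one-step fix, permeabilisation and Hoechst stain preceded 4× imaging and MetaXpress nuclear counts. A plate passed only with control CV under 25% and at least one doubling. Viability is the median, over plates, of treated-well nuclei relative to vehicle-well nuclei.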

[2] = compound: CCN1C(=O)C2=CC(=C(N=C2N(C1=O)C3CC3)N)C(=O)N + C[C@@H](Oc1cc(-c2cnn(C3CCNCC3)c2)cnc1N)c1c(Cl)ccc(F)c1Cl [Crizotinib] (partner 1 µM)
How it was run: (§1)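 Dosing by pin tool came one day after lung cancer cell lines were seeded in 1536-well plates, using either one drug or a fixed anchor-drug dose plus five library-drug doses (not always all listed) in √10 steps. After 5 days, nuclei were counted on 4× images. Relative viability is treated-well nuclei count divided by vehicle-well nuclei count, and values are medians of duplicate plates.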

[3] = compound: CCN1C(=O)C2=CC(=C(N=C2N(C1=O)C3CC3)N)C(=O)N + Cc1nc(NC(=O)N2CCC[C@H]2C(N)=O)sc1-c1ccnc(C(C)(C)C(F)(F)F)c1 [Alpelisib] (partner 2 µM)
How it was run: as §1

[4] = compound: CCN1C(=O)C2=CC(=C(N=C2N(C1=O)C3CC3)N)C(=O)N + Cc1nc(Nc2ncc(C(=O)Nc3c(C)cccc3Cl)s2)cc(N2CCN(CCO)CC2)n1 [Dasatinib] (partner 0.075 µM)
How it was run: as §1

[5] = compound: CCN1C(=O)C2=CC(=C(N=C2N(C1=O)C3CC3)N)C(=O)N + O=C(c1cc(Cc2n[nH]c(=O)c3ccccc23)ccc1F)N1CCN(C(=O)C2CC2)CC1 [Olaparib] (partner 8 µM)
How it was run: as §1

Cell Line	relative viability ([1]; 0.253 µM)	relative viability ([1]; 0.8 µM)	relative viability ([1]; 2.53 µM)	relative viability ([1]; 8 µM)	relative viability ([2]; first compound 0.253 µM)	relative viability ([2]; first compound 0.8 µM)	relative viability ([2]; first compound 2.53 µM)	relative viability ([2]; first compound 8 µM)	relative viability ([3]; first compound 0.253 µM)	relative viability ([3]; first compound 0.8 µM)	relative viability ([3]; first compound 2.53 µM)	relative viability ([3]; first compound 8 µM)	relative viability ([4]; first compound 0.253 µM)	relative viability ([4]; first compound 0.8 µM)	relative viability ([4]; first compound 2.53 µM)	relative viability ([4]; first compound 8 µM)	relative viability ([5]; first compound 0.253 µM)	relative viability ([5]; first compound 0.8 µM)	relative viability ([5]; first compound 2.53 µM)	relative viability ([5]; first compound 8 µM)
LK-2	0.979	0.981	1.03	1.04	0.412	0.226	0.204	0.153	0.761	1.36	1.3	1.13	0.312	0.294	0.303	0.221	0.641	0.706	0.575	0.596
LOU-NH91	0.838	0.921	0.996	0.944	0.705	0.718	0.767	0.707	0.687	0.716	0.721	0.684	0.499	0.526	0.54	0.527	0.913	0.924	0.92	0.946
LU99A	0.856	0.997	0.904	0.984	0.587	0.57	0.476	0.591	0.488	0.531	0.527	0.524	0.541	0.548	0.528	0.511	0.256	0.285	0.256	0.275
LXF-289	1.01	1.07	0.972	1.01	0.834	0.852	0.759	0.84	1.04	1.07	1.03	1.05	0.229	0.348	0.28	0.212	0.957	1.07	1.01	1.18
NCI-H23	0.86	0.96	0.977	0.984	0.387	0.561	0.396	0.532	0.638	0.741	0.615	0.789	0.786	0.746	0.762	0.656	0.325	0.292	0.336	0.332
NCI-H322M	0.959	0.929	0.984	0.996	0.814	0.872	0.887	0.943	0.855	0.694	0.765	0.656	0.275	0.224	0.256	0.248	0.855	0.785	0.753	0.822
NCI-H358	1.05	0.913	0.924	0.954	0.642	0.551	0.525	0.774	0.795	0.91	0.819	0.87	0.157	0.148	0.189	0.17	0.584	0.61	0.578	0.581
NCI-H441	1.1	1.04	0.965	1.03	0.706	0.654	0.773	0.781	0.957	0.756	0.637	0.598	0.734	0.585	0.728	0.683	0.559	0.578	0.499	0.649
NCI-H460	0.976	0.989	0.967	0.972	0.943	0.969	0.684	0.986	0.471	0.433	0.467	0.466	0.5	0.541	0.592	0.452	0.432	0.364	0.433	0.445
NCI-H520	0.985	1.02	0.972	0.904	0.698	0.64	0.645	1.29	0.89	0.765	0.962	0.923	0.17	0.222	0.222	0.31	0.335	0.341	0.356	0.3
NCI-H596	0.933	0.984	1.06	0.971	1.05	0.984	1.08	0.948	0.491	0.436	0.474	0.438	0.625	0.569	0.519	0.548	0.662	0.72	0.767	0.693
NCI-H647	1.02	0.896	0.993	0.924	0.869	0.906	0.948	1.26	1.11	1.17	1.14	1.07	0.182	0.176	0.172	0.16	0.56	0.484	0.586	0.741
NCI-H650	0.955	0.916	0.962	0.849	0.832	0.721	0.615	0.716	1.22	1.06	1	1.02	0.434	0.349	0.424	0.373	0.437	0.39	0.296	0.445
NCI-H661	1.03	0.991	0.972	0.961	1.05	1.05	0.987	1.06	0.711	0.78	0.742	0.778	0.911	0.911	0.898	0.895	0.774	0.782	0.672	0.748
NCI-H727	0.98	0.892	0.976	0.828	0.899	0.797	0.843	0.882	0.568	0.572	0.598	0.658	0.352	0.323	0.333	0.422	0.81	0.705	0.539	0.774
NCI-H838	0.99	0.965	0.923	0.96	0.868	0.817	0.74	0.717	1.02	0.985	0.934	0.906	0.29	0.296	0.316	0.265	0.737	0.764	0.746	0.722
NCI-H1355	1	0.998	0.992	0.973	1.12	1.05	1.02	1.1	0.829	0.949	0.787	0.853	0.728	0.717	0.701	0.725	0.8	0.702	0.759	0.721
NCI-H1437	0.982	0.979	0.969	0.972	0.938	0.993	0.818	1.09	0.956	1.12	0.973	1.04	0.404	0.367	0.464	0.418	0.684	0.637	0.622	0.585
NCI-H1651	0.929	0.976	0.965	0.948	0.892	0.884	0.858	0.868	0.86	0.948	0.875	0.957	0.454	0.465	0.357	0.381	0.223	0.177	0.202	0.186
NCI-H1666	0.93	0.986	0.959	0.938	1.16	0.998	0.883	1	0.985	0.77	0.969	1.09	–	0.828	0.877	0.762	0.719	0.724	0.856	0.737
NCI-H1734	0.9	0.903	0.948	0.943	0.716	0.635	0.618	0.769	0.658	0.669	0.688	0.738	0.437	0.459	0.425	0.453	0.672	0.695	0.579	0.675
NCI-H1755	0.984	1.02	1	0.979	0.895	0.865	0.875	0.918	0.946	0.922	0.946	0.913	0.411	0.506	0.459	0.45	0.908	0.872	0.831	0.843
NCI-H1792	0.763	0.786	1.08	0.832	1.1	0.902	1.08	0.878	0.777	0.687	0.759	0.774	0.763	0.826	0.879	0.567	0.44	0.387	0.292	0.667
NCI-H1915	0.988	1.01	1	0.922	0.895	0.921	0.851	0.911	1.1	0.985	1.01	1.06	0.294	0.307	0.312	0.285	0.271	0.284	0.261	0.286
NCI-H1944	1.01	0.919	0.954	0.827	1.06	1.12	1.01	1.3	0.826	0.832	0.749	0.842	0.22	0.217	0.213	0.217	0.4	0.411	0.374	0.437
NCI-H1975	1.01	0.917	0.957	0.892	0.948	0.94	0.97	0.949	0.635	0.653	0.614	0.619	0.381	0.341	0.356	0.268	0.747	0.82	0.734	0.785
